# Where two headings read alike, the source gives them in different places.
# What was measured:
# [1] = tested on: pancreatic cancer (8 cell lines); experiment: CellTiter-Glo Viability Assay, pancreatic cancer; type: cell-based; settings: Homo sapiens, inhibition of cancer cell proliferation
# Experimental: (§1) Fifty-one human cancer cell lines (breast cancer (8 cell lines), colorectal cancer (6 cell lines), haematopoietic & lymphoid tumors (13 cell lines), liver cancer (3 cell lines), lung cancer (4 cell lines), ovarian cancer (4 cell lines), pancreatic cancer (8 cell lines), and prostate cancer (5 cell lines)) were tested to determine the effects of representative compounds of Formulas (I)-(XII) on cellular proliferation, as evaluated using the CellTiter-Glo® Viability Assay.
# (§2) For the Cell Viability Assays, cells were plated at 300-3,000 cells/well in 384-well plates in their respective media containing 1% Penicillin-Streptomycin and incubated for four days at 37° C. and 5% CO2. Twenty-eight replicates of DMSO-treated cells served as controls and cells treated with compound were performed in duplicate.
# (§3) After incubation, 10 μL of CellTiter-Glo® (Promega) was added to each well allowed to incubate for approximately 12 minutes. This reagent results in cell lysis and generation of a luminescent signal proportional to the amount of ATP present. The amount of ATP is directly proportional to the number of metabolically active, viable cells present in culture. The CellTiter-Glo® Assay generates a luminescent signal, produced by the luciferase reaction (Promega.com).
# (§4) After incubation, the luminescence signal was read using an EnVision™ Multilabel Plate Reader (Perkin Elmer). Dose-response curves were generated and EC50 concentration values were calculated using Dotmatics' Studies Software (Bishops Stortford, UK).
# [2] = tested on: ovarian cancer (4 cell lines); experiment: CellTiter-Glo Viability Assay, ovarian cancer; type: cell-based; settings: Homo sapiens, inhibition of cancer cell proliferation
# Experimental: as §1, §2, §3, §4
# [3] = tested on: prostate cancer (5 cell lines); experiment: CellTiter-Glo Viability Assay, prostate cancer; type: cell-based; settings: Homo sapiens
# Experimental: as §1, §2, §3, §4
# CLK2 = molecular target: T1, CLK2 (Homo sapiens, UniProt P49760); experiment: CLK2 kinase activity assay (Z-lyte, Ser/Thr 6 peptide); type: biochemical; settings: recombinant CLK2 kinase, ATP 60 μM; read-out: EC50
# T1 construct: purchased Thermo Fisher (Life Technologies), Z'-LYTE Kinase Assay Kits
# T1 sequence (P49760 whole entry): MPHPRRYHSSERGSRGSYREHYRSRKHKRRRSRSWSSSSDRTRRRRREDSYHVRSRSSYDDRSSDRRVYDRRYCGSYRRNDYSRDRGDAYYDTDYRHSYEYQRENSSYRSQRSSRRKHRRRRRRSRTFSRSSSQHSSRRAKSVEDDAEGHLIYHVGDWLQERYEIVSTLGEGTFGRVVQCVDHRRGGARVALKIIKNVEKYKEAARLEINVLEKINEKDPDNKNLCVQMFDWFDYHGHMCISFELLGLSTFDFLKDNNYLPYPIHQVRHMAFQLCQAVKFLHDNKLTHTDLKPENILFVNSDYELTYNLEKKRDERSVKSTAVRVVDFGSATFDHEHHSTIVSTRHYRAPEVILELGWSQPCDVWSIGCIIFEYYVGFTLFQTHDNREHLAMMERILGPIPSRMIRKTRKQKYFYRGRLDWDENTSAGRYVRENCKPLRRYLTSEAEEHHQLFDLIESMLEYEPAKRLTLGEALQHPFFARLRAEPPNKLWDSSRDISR
# Experimental: All reactions were performed in duplicate.
# CAMA1 = experiment: CellTiter-Glo Viability Assay, breast cancer; type: cell-based; settings: Homo sapiens, CAMA-1, 96 h; CAMA1, breast cancer, four days; read-out: EC50
# Experimental: as §1, §2, §3, §4
# T47D = experiment: CellTiter-Glo Viability Assay, breast cancer; type: cell-based; settings: Homo sapiens, 96 h, breast cancer, four days, read-out: EC50
# Experimental: as §1, §2, §3, §4
# MCF7 = experiment: CellTiter-Glo Viability Assay, breast cancer; type: cell-based; settings: Homo sapiens, 96 h; MCF7, breast cancer, four days; read-out: EC50
# Experimental: as §1, §2, §3, §4
# BT-549 = experiment: CellTiter-Glo Viability Assay, breast cancer; type: cell-based; settings: Homo sapiens, 96 h; BT-549, breast cancer, four days; read-out: EC50
# Experimental: as §1, §2, §3, §4
# DU4475 = experiment: CellTiter-Glo Viability Assay, breast cancer; type: cell-based; settings: Homo sapiens, DU-4475, 96 h; DU4475, breast cancer, four days; read-out: EC50
# Experimental: as §1, §2, §3, §4
# HCC1599 = experiment: CellTiter-Glo Viability Assay, breast cancer; type: cell-based; settings: Homo sapiens, 96 h; HCC1599, breast cancer, four days; read-out: EC50
# Experimental: as §1, §2, §3, §4
# MDA-MB-231-Luc = experiment: CellTiter-Glo Viability Assay, breast cancer; type: cell-based; settings: Homo sapiens, 96 h; MDA-MB-231-Luc, breast cancer, four days; read-out: EC50
# Experimental: as §1, §2, §3, §4
# [4] = tested on: colorectal cancer (6 cell lines); experiment: CellTiter-Glo Viability Assay, colorectal cancer; type: cell-based; settings: Homo sapiens, inhibition of cancer cell proliferation
# Experimental: as §1, §2, §3, §4
# CLK3 = CLK3 (Homo sapiens, UniProt P49761); experiment: CLK3 kinase activity assay (Z-lyte, Ser/Thr 18 peptide)
# Sequence of CLK3 (P49761 whole entry): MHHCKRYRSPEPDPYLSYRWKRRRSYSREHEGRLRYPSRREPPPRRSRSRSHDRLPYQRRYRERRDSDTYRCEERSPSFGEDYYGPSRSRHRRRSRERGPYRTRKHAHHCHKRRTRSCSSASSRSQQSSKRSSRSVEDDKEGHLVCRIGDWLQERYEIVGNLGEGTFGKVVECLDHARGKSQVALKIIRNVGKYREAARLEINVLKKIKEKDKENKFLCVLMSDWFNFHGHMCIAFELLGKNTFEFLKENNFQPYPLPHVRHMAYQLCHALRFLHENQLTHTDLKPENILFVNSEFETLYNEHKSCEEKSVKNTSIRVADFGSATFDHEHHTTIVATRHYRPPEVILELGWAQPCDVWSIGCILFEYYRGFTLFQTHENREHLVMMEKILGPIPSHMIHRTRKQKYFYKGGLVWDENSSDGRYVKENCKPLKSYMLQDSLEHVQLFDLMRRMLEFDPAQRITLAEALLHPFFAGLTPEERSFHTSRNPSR
# [5] = tested on: lung cancer (4 cell lines); experiment: CellTiter-Glo Viability Assay, lung cancer; type: cell-based; settings: Homo sapiens, inhibition of cancer cell proliferation
# Experimental: as §1, §2, §3, §4
# [6] = tested on: haematopoietic & lymphoid tumors (13 cell lines); experiment: CellTiter-Glo Viability Assay, haematopoietic & lymphoid tumors; type: cell-based; settings: Homo sapiens, inhibition of cancer cell proliferation
# Experimental: as §1, §2, §3, §4
# all 50 cell lines = experiment: CellTiter-Glo Viability Assay, average across all cell lines; type: cell-based; settings: Homo sapiens; across all 50 cell lines; read-out: average EC50 for inhibition of cancer cell proliferation
# Experimental: as §1, §2, §3, §4
# [7] = tested on: liver cancer (3 cell lines); experiment: CellTiter-Glo Viability Assay, liver cancer; type: cell-based; settings: Homo sapiens, inhibition of cancer cell proliferation
# Experimental: as §1, §2, §3, §4
compound,measurement,setting,value
CN1CCN(c2cc(C(=O)Nc3cc4cc(-c5nnc(N(C)C)s5)ccc4cn3)ccn2)CC1 [Compound 84],EC50,"[1]; BXPC-3, BxPC3 cell line, read-out: Pancreatic cancer, EC50 BxPC3",2070 nM
same,EC50,"[1]; CAPAN-1, Capan1 cell line, read-out: Pancreatic cancer, EC50 Capan1",1120 nM
same,EC50,"[1]; Capan-2, Capan2 cell line, read-out: Pancreatic cancer, EC50 Capan2",1290 nM
same,EC50,"[1]; MIA PaCa-2 cell line, read-out: Pancreatic cancer, EC50 MIA PaCa-2",461 nM
same,EC50,"[1]; PANC 05.04 cell line, read-out: Pancreatic cancer, EC50 PANC 05.04",1190 nM
same,EC50,"[1]; PANC-1 cell line, read-out: Pancreatic cancer, EC50 PANC-1",1830 nM
same,EC50,"[1]; UPAFII cell line, read-out: Pancreatic cancer, EC50 UPAFII",593 nM
same,EC50,"[2]; PA-1, PA1 cell line, read-out: Ovarian cancer, EC50 (μM) PA1",0.643 µM
same,EC50,"[2]; TOV112D, TOV-112D cell line, read-out: Ovarian cancer, EC50 (μM) TOV-112D",0.61 µM
same,EC50,"[2]; OV-90 cell line, read-out: Ovarian cancer, EC50 (μM) OV-90",1.64 µM
same,EC50,"[2]; OVCAR-3 cell line, read-out: Ovarian cancer, EC50 (μM) OVCAR-3",0.446 µM
same,EC50,"[3]; DU-145, read-out: Prostate cancer EC50 Du-145",1040 nM
same,EC50,"[3]; PC-3, PC3 cell line, inhibition of cancer cell proliferation, read-out: Prostate cancer EC50 PC3",848 nM
same,EC50,"[3]; 22Rv1 cell line, inhibition of cancer cell proliferation, read-out: Prostate cancer EC50 22Rv1",847 nM
same,EC50,"[3]; LNCap clone FGC cell line, inhibition of cancer cell proliferation, read-out: Prostate cancer EC50 LNCap clone FGC",1540 nM
same,EC50,"[3]; VCaP (Sigma) cell line, inhibition of cancer cell proliferation, read-out: Prostate cancer EC50 VCaP (Sigma)",3500 nM
same,EC50,CLK2,2.9 nM
same,EC50,CAMA1,1220 nM
same,EC50,T47D,1430 nM
same,EC50,MCF7,2560 nM
same,EC50,BT-549,1240 nM
same,EC50,DU4475,640 nM
same,EC50,HCC1599,1130 nM
same,EC50,MDA-MB-231-Luc,1100 nM
same,EC50,"[4]; HCT-116, HCT116 cell line, read-out: Colorectal cancer, EC50 (μM) HCT116",0.396 µM
same,EC50,"[4]; HT-29, HT29 cell line, read-out: Colorectal cancer, EC50 (μM) HT29",1.13 µM
same,EC50,"[4]; SW-620, SW620 cell line, read-out: Colorectal cancer, EC50 (μM) SW620",0.26 µM
same,EC50,"[4]; DLD-1 cell line, read-out: Colorectal cancer, EC50 (μM) DLD-1",0.658 µM
same,EC50,"[4]; SW48 cell line, read-out: Colorectal cancer, EC50 (μM) SW48",0.185 µM
same,EC50,"[4]; SW480 cell line, read-out: Colorectal cancer, EC50 (μM) SW480",0.551 µM
same,EC50,CLK3,27.2 nM
same,EC50,"[5]; A-427, A427 cell line, read-out: Lung cancer, EC50 (μM) A427",0.856 µM
same,EC50,"[5]; HCC78, HCC-78 cell line, read-out: Lung cancer, EC50 (μM) HCC-78",1.47 µM
same,EC50,"[5]; NCI-H460 cell line, read-out: Lung cancer, EC50 (μM) NCI-H460",1.26 µM
same,EC50,"[5]; NCI-H522 cell line, read-out: Lung cancer, EC50 (μM) NCI-H522",0.553 µM
same,EC50,"[6]; DND41, DND-41 cell line, read-out: Haematopoietic & Lymphoid tumors, EC50 (μM) DND-41",0.914 µM
same,EC50,"[6]; MV4-11, MV-4-11 cell line, read-out: Haematopoietic & Lymphoid tumors, EC50 (μM) MV-4-11",0.316 µM
same,EC50,"[6]; Rec1, REC-1 cell line, read-out: Haematopoietic & Lymphoid tumors, EC50 (μM) REC-1",0.23 µM
same,EC50,"[6]; SU-DHL-4, SUDHL4 cell line, read-out: Haematopoietic & Lymphoid tumors, EC50 (μM) SUDHL4",0.972 µM
same,EC50,"[6]; HL-60 cell line, read-out: Haematopoietic & Lymphoid tumors, EC50 (μM) HL-60",2.59 µM
same,EC50,"[6]; JM1 cell line, read-out: Haematopoietic & Lymphoid tumors, EC50 (μM) JM1",0.216 µM
same,EC50,"[6]; JURKAT, Clone E6-1 cell line, read-out: Haematopoietic & Lymphoid tumors, EC50 (μM) JURKAT, Clone E6-1",1.62 µM
same,EC50,"[6]; JeKo-1 cell line, read-out: Haematopoietic & Lymphoid tumors, EC50 (μM) JeKo-1",0.319 µM
same,EC50,"[6]; KASUMI-1 cell line, read-out: Haematopoietic & Lymphoid tumors, EC50 (μM) KASUMI-1",0.842 µM
same,EC50,"[6]; Loucy cell line, read-out: Haematopoietic & Lymphoid tumors, EC50 (μM) Loucy",0.78 µM
same,EC50,"[6]; MOLT-4 cell line, read-out: Haematopoietic & Lymphoid tumors, EC50 (μM) MOLT-4",0.965 µM
same,EC50,"[6]; TF-1 cell line, read-out: Haematopoietic & Lymphoid tumors, EC50 (μM) TF-1",1.31 µM
same,EC50,"[6]; TOLEDO cell line, read-out: Haematopoietic & Lymphoid tumors, EC50 (μM) TOLEDO",0.3 µM
same,EC50,all 50 cell lines,1040 nM
same,EC50,"[7]; SNU-398, SNU398 cell line, read-out: Liver cancer, EC50 SNU398",234 nM
same,EC50,"[7]; HEPG2 cell line, read-out: Liver cancer, EC50 HEPG2",734 nM
same,EC50,"[7]; PLC/PRF/5 cell line, read-out: Liver cancer, EC50 PLC/PRF/5",1930 nM
